This is an account of results in article PMC9412555, “Benzothiazole Derivatives Endowed with Antiproliferative Activity in Paraganglioma and Pancreatic Cancer Cells: Structure–Activity Relationship Studies and Target Prediction Analysis” (Pharmaceuticals, 2022).

Where two headings read alike, the source gives them in different places.

The subject of data set [1] is BxPC-3. Description: MTT cell viability assay, BxPC-3. The format is cell-based. The conditions noted are these: for IC50: Homo sapiens, BxPC-3 pancreatic cancer, MTT, 72 h; for Selectivity Index (SI): IC50 in normal (HFF-1) fibroblast cells/IC50 in BxPC-3. How it is done:
(§1) Compounds 4a–p were submitted to a preliminary MTT assay at a one-point screening concentration of 75 μM for 72 h, including 2b as a reference compound (Figure 3). […] The presence of the electron-donating methoxy group decreased the activity of 2b, in both the para and meta positions. […] Specifically, these compounds, namely 4d, 4e, 4f, 4h, 4i, 4j, 4k, 4l, and 4m, were tested at concentrations of 3, 6, 12 and 24 µM for 72 h. In addition, the nine compounds, together with 2b, were tested against human fibroblasts HFF-1, in order to evaluate their selectivity against tumor cells, as compared to normal cells. Effects on cancer or normal cell viability were extrapolated from concentration–response curves and are expressed as IC50 values in Table 2.
(§2) Pancreatic cancer (AsPC-1, BxPC-3, and Capan-2), paraganglioma (PTJ86i and PTJ64i) and normal fibroblast (HFF-1) cell lines were cultured as previously described. All compounds were dissolved in DMSO (stock solutions) and then diluted in culture media to the final working concentrations. In this way, the solutions were completely clear and devoid of any undissolved material by microscopic inspection. […] The effects of compounds 4a-p and 2b on cancer cell viability were tested by an MTT assay (Sigma-Aldrich, St. Louis, MO, USA), as described by Florio et al.. In the initial screening all compounds were tested at a one-point screening concentration of 75 μM for 72 h (five replica wells per each condition). […] For combined treatments, the experimental design was made according to the Chou–Talalay method for drug combination studies, as previously described.
(§3) IC50 values were extrapolated from concentration–response curves and calculated using the CompuSyn software. […] Based on this analysis, a CI < 1 indicates synergism, a CI = 1 indicates additive effects and a CI > 1 indicates antagonism. SI values were calculated as previously described. Comparisons of mean values were performed using an unpaired Student’s t-test. For multiple comparisons, a one-way ANOVA followed by Dunnett’s test were employed. A p-value < 0.05 was estimated as statistically significant.

The test system of data set [2] is PTJ86i. Details: method as in PMID 28594934. The settings on record: PTJ86i paraganglioma, previously published; cited from earlier work.
Data set [3] relates to PTJ64i. Description: MTT cell viability assay, PTJ64i. The data set is classed as cell-based. The settings on record: for Selectivity Index (SI): IC50 in normal (HFF-1) fibroblast cells/IC50 in PTJ64i; for IC50: PTJ64i paraganglioma, MTT, 72 h. How it is done: as §1, §2, §3
(Tetrazolium dyes change colour on reduction, which living cells bring about.)

Data set [4] deals with PTJ86i. Description: MTT cell viability assay, PTJ86i. The data set is classed as cell-based. The conditions noted are these: for Selectivity Index (SI): IC50 in normal (HFF-1) fibroblast cells/IC50 in PTJ86i; for IC50: PTJ86i paraganglioma, MTT, 72 h. The procedure:
as §1, §2, §3

For data set [5], the system named is HFF-1. Nature of the data set: MTT cell viability assay, normal fibroblasts HFF-1. The data set is classed as cell-based, human. The settings on record: Homo sapiens; HFF-1 normal cells, MTT, 72 h.
Method: All compounds were dissolved in DMSO (stock solutions) and then diluted in culture media to the final working concentrations. […] The effects of compounds 4a-p and 2b on cancer cell viability were tested by an MTT assay (Sigma-Aldrich, St. Louis, MO, USA), as described by Florio et al. [17]. In the initial screening all compounds were tested at a one-point screening concentration of 75 μM for 72 h (five replica wells per each condition).
IC50 values were extrapolated from concentration–response curves and calculated using the CompuSyn software [45]. […] SI values were calculated as previously described [46]. Comparisons of mean values were performed using an unpaired Student’s t-test. For multiple comparisons, a one-way ANOVA followed by Dunnett’s test were employed. A p-value < 0.05 was estimated as statistically significant.
Data set [6] concerns Capan-2. Nature of the data set: MTT cell viability assay, Capan-2. The data set is classed as cell-based. The settings on record: for IC50: Homo sapiens, Capan-2 pancreatic cancer, MTT, 72 h; for Selectivity Index (SI): IC50 in normal (HFF-1) fibroblast cells/IC50 in Capan-2. How it is done: as §1, §2, §3
The subject of data set [7] is PTJ64i. Details: method as in PMID 28594934. The conditions noted are these: PTJ64i paraganglioma, previously published; cited from earlier work.
For data set [8], the system named is AsPC-1. Description: MTT cell viability assay, AsPC-1. The data set is classed as cell-based. The conditions noted are these: for IC50: Homo sapiens, ASPC1, AsPC-1 pancreatic cancer, MTT, 72 h; for Selectivity Index (SI): IC50 in normal (HFF-1) fibroblast cells/IC50 in AsPC-1. How it is done: as §1, §2, §3
The test system of data set [9] is pancreatic (AsPC-1, BxPC-3, and Capan-2) and paraganglioma (PTJ64i and PTJ86i) cancer cell lines. Nature of the data set: One-point MTT screening at 75 µM in cancer cell lines. The settings on record: one-point screening concentration of 75 μM for 72 h, five cancer cell lines. The data set is classed as cell-based. How it is done:
as §1, §2
Figure 3 Screening of the effects of novel derivatives (4a–p) on the viability of pancreatic (AsPC-1, BxPC-3, and Capan-2) and paraganglioma (PTJ64i and PTJ86i) cancer cell lines. The lead compound 2b was included as a reference and the histograms show the relative decrease of cancer cell viability observed after treatments, as compared to 2b. Cell viability was assessed by an MTT assay using compounds at 75 µM for 72 h. Data shown are the means ± SD of duplicate experiments with quintuplicate determinations and are calculated as ratios relative to the reference compound 2b (dashed line).

In general, IC50 refers to the concentration that inhibits the measured activity by half. As for `O=C(Nc1ccccc1)C(Sc1nc2cc(Cl)ccc2s1)c1ccccc1` (stereo not drawn) [2b, reference compound], the IC50 in data set [1] is 15 µM; in [2], 16.7 µM; in data set [5] it was 21.4 µM; in [6], 19.7 µM; in data set [7], 8.49 µM; in data set [8], 12.4 µM. Besides, the “Selectivity Index (SI)” value worked out at 1.43 in data set [1]; 2.52 in data set [3]; 1.28 in data set [4]; 1.09 in data set [6]; 1.72 in data set [8].
As usually defined, the melting point is the temperature, or range, at which the solid turns liquid. Compound `O=C(Nc1ccc([N+](=O)[O-])cc1)C(Sc1nc2cc(Cl)ccc2s1)c1ccccc1` (stereo not drawn) [4e, 2-[(5-Chlorobenzo[d]thiazol-2-yl)thio]-N-(4-nitrophenyl)-2-phenylacetamide] gave a melting point of 191 to 193 °C. The “effect on cancer cell viability, potency compared with 2b” value (“effect … compared with 2b” for short) in data set [9] is “greater antiproliferative activity than 2b”. Further, in data set [1], the half-inhibitory concentration (IC50) amounted to 10.7 µM and the “Selectivity Index (SI)” value stood at 1.56. In addition, in data set [3], the “Selectivity Index (SI)” value came out at 1.70 and the IC50 worked out at 9.81 µM. Besides, in data set [4], the “Selectivity Index (SI)” value is reported as 0.88 and the IC50 turned out to be 18.9 µM. Moreover, the IC50 in data set [5] came to 16.7 µM. Besides, in data set [6], the half-maximal inhibitory concentration (IC50) was 14.1 µM and the “Selectivity Index (SI)” value came to 1.18. Besides, in data set [8], the concentration for half-maximal inhibition (IC50) was 12.8 µM and the “Selectivity Index (SI)” value was 1.31.
For the compound `CC(=O)Nc1ccc(NC(=O)C(Sc2nc3cc(Cl)ccc3s2)c2ccccc2)cc1` (stereo not drawn) [4f, N-(4-Acetamidophenyl)-2-[(5-chlorobenzo[d]thiazol-2-yl)thio]-2-phenylacetamide], the melting point is 243 °C (dec.). Besides, in [9], the “effect … compared with 2b” value is recorded as “greater antiproliferative activity than 2b”. Further, in data set [1], the IC50 came to 18.9 µM and the “Selectivity Index (SI)” value came out at 0.35. In [3], the “Selectivity Index (SI)” value was found to be 0.53 and the IC50 turned out to be 12.3 µM. In data set [4], the “Selectivity Index (SI)” value turned out to be 0.51 and the IC50 is 12.8 µM. For the same compound, the midpoint of inhibition in data set [5], the IC50, lay at 6.54 µM. Besides, in data set [6], the IC50 was 20.1 µM and the “Selectivity Index (SI)” value worked out at 0.33. In addition, in [8], the IC50 is 10 µM and the “Selectivity Index (SI)” value was 0.65.
As to `O=C(Nc1cccc(F)c1)C(Sc1nc2cc(Cl)ccc2s1)c1ccccc1` (stereo not drawn) [4i, 2-[(5-Chlorobenzo[d]thiazol-2-yl)thio]-N-(3-fluorophenyl)-2-phenylacetamide], the melting point is 151 to 153 °C. Moreover, in [9], the “effect … compared with 2b” value is recorded as “greater antiproliferative activity than 2b”. For the same compound, in data set [1], the half-maximal inhibitory concentration (IC50) was determined as 18.6 µM and the “Selectivity Index (SI)” value came to 0.81. Besides, in [3], the “Selectivity Index (SI)” value amounted to 1.74 and the IC50 was found to be 8.6 µM. In data set [4], the “Selectivity Index (SI)” value was 1.28 and the IC50 was 11.7 µM. The IC50 in data set [5] stood at 15 µM. Besides, in data set [6], the IC50 worked out at 28.5 µM and the “Selectivity Index (SI)” value is 0.53. Also, in data set [8], the IC50 is 14.8 µM and the “Selectivity Index (SI)” value is recorded as 1.01.
In turn, `O=C(Nc1cccc([N+](=O)[O-])c1)C(Sc1nc2cc(Cl)ccc2s1)c1ccccc1` (stereo not drawn) [4k, 2-[(5-Chlorobenzo[d]thiazol-2-yl)thio]-N-(3-nitrophenyl)-2-phenylacetamide] displayed a melting point of 193 to 195 °C. The “effect … compared with 2b” value in data set [9] was “greater antiproliferative activity than 2b”. Further, in data set [1], the 50% inhibitory concentration (IC50) amounted to 11.9 µM and the “Selectivity Index (SI)” value is 1.96. For the same compound, in data set [3], the “Selectivity Index (SI)” value is 3.12 and the IC50 was 7.47 µM. For the same compound, in [4], the “Selectivity Index (SI)” value is reported as 1.73 and the half-maximal inhibitory concentration (IC50) was 13.5 µM. Besides, the concentration for half-maximal inhibition (IC50) in data set [5] worked out at 23.3 µM. In data set [6], the IC50 was determined as 16.9 µM and the “Selectivity Index (SI)” value is 1.38. In addition, in data set [8], the concentration for half-maximal inhibition (IC50) came to 10.1 µM and the “Selectivity Index (SI)” value amounted to 2.31.
